Data: patent US5770623A, “Argine antagonists for inhibition of systemic hypotension associated with nitric oxide production or endothelial derived relaxing factor” (Board of Regents, The University of Texas System, priority 1995, dated 1998)
Entries after “also recorded” stand apart in the source; their conditions may differ. Read-outs that look alike come from different tables or passages of the source.

Assays:
[1] = system: guinea pig pulmonary artery rings; experiment: Relaxation of preconstricted guinea pig pulmonary artery rings
endotoxin-treated dogs = format: in vivo, dog; parameters: blood pressure after L-arginine / change in SAP after L-arginine: dose or concentration left out as unconfirmed; conditions: for Cardiac Output / Heart Rate / Systemic Arterial Pressure / Systemic Vascular Resistance: Table 1, Study 1: Endotoxin-treated (n = 4)
Protocol: Animals: Studies were carried out on 12 conditioned mongrel dogs (9 males and 3 females) weighing 22-32 kg (avg=25.3 kg). Animal care was in accordance with the recommendations of the American Association for Accreditation of Laboratory Animal Care, and met all standards prescribed by the Guide for the Care and Use of Laboratory Animals (Guide for the Care and Use of Laboratory Animals (1978) Dept. of Health, Education and Welfare, Washington, D.C. (Publ. No. 78-23). Animal protocols were approved by The University of Texas Animal Welfare Committee. The dogs were fasted overnight prior to the day of experimentation. They were anesthetized with sodium pentobarbital (25 mg/kg I.v.). Dogs were then endotracheally intubated and ventilated with a piston-driven respirator (Harvard instruments) using room air at a tidal volume of 20 ml/kg and at a rate of 10 to 12 breaths per minute, adjusted to achieve a normal arterial pH and pCO2 (Instrumentation Laboratories 1L13012 pH/Blood Gas Analyzer). Catheters were placed percutaneously into the femoral and pulmonary arteries; In the latter, a flow-directed thermal-dilation catheter was used (Abbott Critical Care Systems).
Physiologic measurements: Mean SAP and heart rate were continuously monitored (Parametron 7048 Monitoring System, Roche) and stored on a magnetic disk using an analog-to-digital converter (Scientific Solutions, Inc.). Cardiac output (CO) was determined as the mean of six measurements by thermal-dilution. Systemic vascular resistance was calculated as (SAP X80)/CO and expressed as […].
Protocol: After the blood pressure and heart rate stabilized, endotoxin (40 ug/kg, in 10 ml of phosphate-buffered saline (PBS), pH 7.4) was infused i.v. over 2 minutes. This dose of endotoxin typically induces severe and often lethal cardiovascular collapse in the dog. Blood pressure was monitored, and when either SAP fell below 60 mmHg or a stable nadir in systemic arterial pressure (SAP) was maintained for 10 minutes, L-NMA was administered (20 mg/kg in 5 ml of PBS i.v. over 1 min.). In most experiments, L-arginine (400 mg/kg in 20 mi PBS) was administered ten minutes later by i.v. infusion over 2 minutes. In control experiments, dogs without prior exposure to endotoxin received L-NMA alone. To simulate the hypotension observed in dogs receiving endotoxin, one group of dogs received a continuous i.v. infusion of nitroglycerin (2 mg/ml) at a rate adjusted to maintain the SAP at 60-70 mm Hg. Nitroglycerin-treated dogs then received L-NMA (20 mg/kg) and 20 minutes later L-arginine was administered […].

rabbit aortic rings = experiment: ACh-induced relaxation of isolated rabbit aortic rings; conditions: for effect on ACh-induced vasorelaxation: NE-preconstricted rabbit aorta, FIG. 11
From the text: FIG. 9b compares concentration-response relationships for the same set of mono- and disubstituted arginine analogs as FIG. 9a, plus an additional dimethyl analog with the two methyl groups on different guanidino nitrogens. The test is for inhibition of ACh-induced vasorelaxation in isolated rabbit aortic rings. The points plotted represent means±S.E. of the maximum responses to ACh observed in the presence of the indicated concentrations of analogs (n=4).
Guinea pig pulmonary artery (GP PA), rat and rabbit aorta (Ao), and dog coronary (CA) and femoral artery (FA) were precontracted with NE (1 μM) and relaxed with a single concentration of ACh. Concentration of ACh: GP PA 1 μM, rat Ao […], rabbit Ao 0.3, dog CA […] and […] 0.1 μM. […] The concentrations of L-citrulline (L-cit), D-arginine (D-arg) and L-arginine (L-arg) were all 0.5 mM. Bars are mean values±SEM (n=4-6).
(§1) FIG. 11 contains representative physiograph tracings which depict ACh-induced relaxation of NE-preconstricted rings prepared from rabbit aorta (upper panel) and human internal mammary artery (lower panel).

[2] = system: murine endothelial cells exposed to Gamma-Interferon and TNF (nitric oxide production); experiment: Inhibition of nitrite production by MBEC exposed to IFN (100 U/ml) and TNF (500 U/ml); format: cell-based; conditions: for IC50: Mus musculus, Endothelial cell
Protocol: Endothelial cells--MBEC's were isolated from murine brain microvessels and cultured on gelatin-coated tissue culture dishes in DME/F12 media supplemented with 2% PPPHS, 5% FBS (Hyolone), 50 μg/ml ECGF (Biomed Tech), and 10 U/ml heparin (Sigma) as previously described (Belloni et al. 1989). The endothelial derivation of MBEC's was determined by the presence of a non-thrombogenic surface to platelets and immunofluorescent staining for Factor VIII related antigen. MBEC's were used between passage 6-9 for all experiments.
Nitrite Assay--MBE cells were cultured on gelatin-coated well plates (Corning) in 100 μl of culture medium and treated with cytokines at 3 days post-confluence. After 48 hours, nitrite production was determined by a colorimetric assay. […] All treatments were performed in triplicate and data presented as the mean value±standard deviation. […]
production by murine endothelial cells exposed to GammaInterferon (100
U/ml) and TNF (500 U/ml) in vitro.

[3] = system: human internal mammary artery; experiment: ACh-induced relaxation of human internal mammary artery; conditions: for effect on ACh-induced vasorelaxation: NE-preconstricted, FIG. 11
From the text: as §1

[4] = system: vascular EDRF/NO synthesis; conditions: Sakuma et al., cited from earlier work

For `CNC(=N)NCCC[C@H](N)C(=O)O` [NMMA, N^G -methyl-L-arginine], the “effect on vasodilatation by ACh, LTD4 and HIST” value ([1]; endothelium-dependent vasodilators) was “blocks endothelium-dependent relaxation; also recorded: blocks the action of ACh, LTD4 and HIST”, the “inhibition of EDRF/NO synthesis” value ([1]; guinea pig pulmonary artery rings, 1 μM NE, ACh) was “served as inhibitors of EDRF/NO synthesis” and the “inhibition of EDRF/NO in vascular preparation” value ([1]; guinea pig pulmonary artery, NMMA 100 μM) was “arginine reversible inhibitor of EDRF/NO”. The “effect on vasodilatation by SNP” value ([1]; sodium nitroprusside, endothelium-independent) was “does not inhibit”, the “anti-hypotensive effect in endotoxemic dog” value (endotoxin-treated dogs; 20 mg/kg L-NMA) was “rapid and strong anti-hypotensive effect; also recorded: restores blood pressure to normal or near normal values” and the “increase in SAP by L-NMA” value (endotoxin-treated dogs; FIG. 24, 20 mg/kg, within 10 min) was 73 mm Hg. The “duration of maintained blood pressure, first dose” value (endotoxin-treated dogs; FIG. 24, first dose of L-NMA) was 48 min, the “SAP maintained after second dose” value (endotoxin-treated dogs; FIG. 24, for 2 hrs) was “greater than 100 mm Hg” and the “time to normalization / reversal of hypotension” value (endotoxin-treated dogs; L-NMA 20 mg/kg i.v.) was no more than 1.5 min. For the same molecule, the “increase in SVR by L-NMA” value (endotoxin-treated dogs; L-NMA, endotoxin-treated) was 2060±338 dynes-sec/cm^5, the “Cardiac Output” value (endotoxin-treated dogs) was 2.03 ± 0.32 L/min and the “Heart Rate” value (endotoxin-treated dogs) was 123.3 ± 4.8 beats/min. The Systemic Arterial Pressure (endotoxin-treated dogs) was 107 ± 9.6 mmHg, the “Systemic Vascular Resistance” value (endotoxin-treated dogs) was 4462 ± 552 dynes-sec/cm^5 and the “duration of normal blood pressure with additional dose” value (endotoxin-treated dogs; additional dose of L-NMA 20 mg/kg) was “at least 2 hours”. The “increase in SAP by L-NMA” value (endotoxin-treated dogs; endotoxemic dogs, L-NMA 20 mg/kg, n=4) was 47.8±6.8 mmHg, the “HR and CO after L-NMA” value (endotoxin-treated dogs; endotoxin-treated) was “unchanged” and the “pressor effect of doses greater than 20 mg/kg” value (endotoxin-treated dogs; limited dose response studies, versus 20 mg/kg) was “do not have a significantly greater pressor effect”. The “duration of normal blood pressure after single dose” value (endotoxin-treated dogs; single i.v. dose L-NMA 20 mg/kg) was 30 to 60 min, the “effect on ACh-induced vasorelaxation” value (rabbit aortic rings) was “attenuate ACh-induced vasorelaxation” and the “inhibition of EDRF/NO in vascular preparation” value (rabbit aortic rings; rabbit aorta, NMMA 100 μM) was “arginine reversible inhibitor of EDRF/NO”. For the same molecule, the “concentration giving maximal inhibition of nitrite production” value ([2]; MBEC exposed to TNF and IFN) was 1 mM, the “effect of NMMA on nitrite production” value ([2]; MBEC exposed to TNF and IFN) was “inhibited” and the IC50 ([2]; 48 h, read-out: ED50% (effective dose that inhibited 50% of the nitrite production), murine endothelial cells, Gamma-Interferon (100 U/ml) and TNF (500 U/ml), in vitro) was 337 µM. For the same molecule, the IC50 ([2]; read-out: E.D. 50% for inhibition of nitrite production, MBEC exposed to TNF and IFN) was 330 µM, the “effect on ACh-induced vasorelaxation” value [3] was “attenuate ACh-induced vasorelaxation” and the “inhibition of EDRF/NO in vascular preparation” value ([3]; human) was “arginine reversible inhibitor of EDRF/NO”. For the same molecule, the “inhibition of vascular EDRF/NO synthesis” value ([4]; induced by acetylcholine and histamine) was “inhibit vascular EDRF/NO synthesis”.
In the case of `N=C(N)NCCC[C@H](N)C(=O)O` [L-arginine, reference compound], the “effect on relaxation in the presence of NMMA” value ([1]; excess L-arginine) is reported as “restored relaxation in the presence of NMMA”, the “effect of L-arginine on L-NMA effect” value (endotoxin-treated dogs; 400 mg/kg L-arginine) is reported as “reversed the effect of L-NMA and restored the endotoxin-induced hypotension” and the “blood pressure after L-arginine” value (endotoxin-treated dogs; 2 hours after L-NMA dosing, decline) is reported as less than 45 mm Hg. For the same molecule, the “blood pressure after L-arginine” value (endotoxin-treated dogs; FIG. 24, L-arginine) was 43 mm Hg, the “change in SAP after L-arginine” value (endotoxin-treated dogs; FIG. 24, L-arginine) was -77 mm Hg and the “Cardiac Output” value (endotoxin-treated dogs) was 2.31 ± 0.43 L/min. For the same molecule, the “Heart Rate” value (endotoxin-treated dogs) was 116.7 ± 18.8 beats/min, the Systemic Arterial Pressure (endotoxin-treated dogs) was 52.7 ± 8.8 mmHg and the “Systemic Vascular Resistance” value (endotoxin-treated dogs) was 1851 ± 171 dynes-sec/cm^5. For the same molecule, the “effect on ACh-induced vasorelaxation” value (rabbit aortic rings) was “restores relaxation”, the “reversal of NMMA inhibition of nitrite production” value ([2]; 8 mM L-arginine vs 1 mM NMMA) was “completely reversing the effects of 1 mM NMMA” and the “nitrite concentration upon adding L-arginine back to arginine-free medium” value ([2]; MBEC exposed to TNF and IFN) was “increased in a dose dependent manner”. For the same molecule, the “effect on ACh-induced vasorelaxation” value [3] was “restores relaxation” and the “restoration of EDRF/NO synthesis” value ([4]; excess L-arginine after L-NMA) was “restored”.
